These results are taken from PMC9571264 (Molecules, 2022).

One data set deals with Leukemia Cancer HL60. Briefly: MTT cytotoxicity assay, HL60. The format is cell-based. Conditions: Homo sapiens, HL-60, 48 h, read-out: IC50 (µM) ± SEM, Leukemia Cancer HL60. The method, then:
(§1) Cytotoxic activities of the synthesized derivatives were screened against leukemia (HL60), liver (HepG2), breast (MCF-7), and lung (A549) cancer cell lines and non-cancerous THLE2 and WISH cells at different concentrations [0.01–100 µM] for 48 h using the MTT assay (Table 1).
(§2) Human promyelocytic leukemia ”HL-60”, human hepatocellular carcinoma “HepG2”, human breast cancer “MCF-7”, human lung cancer “A549” cell lines, and two normal cell lines, THLE-2 as normal adult liver epithelial cells and WISH as normal epithelial cells, were obtained from American Type Culture Collection “Rockville, MD, USA”.
(§3) According to the manufacturer’s protocol, the cells were seeded in 96-well plates at a concentration of 5 × 10^4 cells per well (200 µL). Different concentrations of the tested compounds were used to test the cytotoxicity. […] A non-linear regression of curve fit was used to calculate the IC50.
A general note: Formazan colour is commonly taken as a measure of viable cells.

The next data set relates to Liver Cancer HepG2. Briefly: MTT cytotoxicity assay, HepG2. The format is cell-based, human. Conditions: read-out: IC50 (µM) ± SEM, Liver Cancer HepG2. The method, then: as §1, §2, §3
The next data set has as its system Breast Cancer MCF-7. As to the kind of experiment: MTT cytotoxicity assay, MCF-7. The format is cell-based. Conditions: Homo sapiens, MCF7, 48 h, read-out: IC50 (µM) ± SEM, Breast Cancer MCF-7. On the procedure: as §1, §2, §3
The next data set concerns Lung Cancer A549. As to the kind of experiment: MTT cytotoxicity assay, A549. The format is cell-based. Conditions: Homo sapiens, 48 h, read-out: IC50 (µM) ± SEM, Lung Cancer A549. On the procedure: as §1, §2, §3
The subject of another data set is leukemia CCRF-CEM. More on the design: method as in PMID 21439691. Conditions: ref [39]; cited from earlier work.
In data set [1] the test system is non-small-cell lung cancer HOP-92. More on the design: method as in PMID 21439691. Conditions: ref [39]; cited from earlier work.
The test system of the next data set is colon cancer HCC-2998. Further details: method as in PMID 21439691. To be noted: ref [39]; cited from earlier work.
Data set [2] concerns HepG2. To be noted: ref [37]; cited from earlier work.
Data set [3] deals with promyelocytic leukemia cell line (HL60). Further details: method as in PMID 19322800. To be noted: ref [38]; cited from earlier work.
For data set [4], the system named is HepG2. More on the design: method as in PMID 24148965, PMID 26890810. To be noted: ref [41],[43]; read-out: IC50 on HepG2 (apoptotic effect); cited from earlier work.
Another data set deals with Normal Liver THLE2. As to the kind of experiment: MTT cytotoxicity assay, normal THLE2. The format is cell-based. To be noted: Homo sapiens, THLE-2, 48 h, read-out: IC50 (µM) ± SEM, Normal Liver THLE2. On the procedure:
as §1, §2, §3

In brackets after ≈: the same amount, converted by molar mass. Like-named read-outs stand apart in the source and are kept apart here.

`Cc1cc(=O)oc2cc(OC(=O)/C=C/c3ccccc3)ccc12` [Compound 8a, (2E)-4-Methyl-2-oxo-2H-chromen-7-yl Cinnamate]: the melting point (as a rule, the temperature of the solid-liquid transition) is 96 °C. In addition, the IC50 (as a rule, the point on the concentration scale where inhibition reaches its midpoint) in the data set on Leukemia Cancer HL60 was determined as 34.8 ± 0.64 µM. The IC50 with Liver Cancer HepG2 (48 h) stood at 75.2 ± 1.39 µM. Besides, the IC50 in the data set with Breast Cancer MCF-7 was 39.3 ± 1.69 µM. In addition, the IC50 with Lung Cancer A549 is 19.6 ± 0.89 µM.

As to `O=C(O)/C=C/c1ccccc1` [Compound 6, cinnamic acid], the half-maximal inhibitory concentration (IC50) in the data set with Leukemia Cancer HL60 is 88.21 ± 0.51 µM; in the data set with Liver Cancer HepG2 (Homo sapiens, HepG2, 48 h) it was 36.58 ± 0.19 µM; in the data set with Breast Cancer MCF-7, 28.6 ± 0.91 µM; with Lung Cancer A549 it was 27.6 ± 1.95 µM.

In the case of `CC(=O)c1cc2c(C)cc(=O)oc2cc1OCCN1CCOCC1` [VI], in the data set with leukemia CCRF-CEM, the “GI, leukemia CCRF-CEM” value was 627.1 µM. The “GI, non-small-cell lung cancer HOP-92” value in data set [1] is 237.8 µM. Besides, in the data set on colon cancer HCC-2998, the “GI, colon cancer HCC-2998” value was 341.4 µM.

`Cc1cc(=O)oc2cc(OCC(=O)N/N=C/c3ccc(Br)cc3)ccc12` [IV]: the “IC50 against HepG2” value in the data set with HepG2 [2] is 4.67 ± 0.78 µg/mL (≈ 11.2 µM).

Take `Cc1cc(=O)oc2cc(O)ccc12` [Compound 3, 7-Hydroxy-4-methylcoumarin]: the half-maximal inhibitory concentration (IC50) stood at 42.55 ± 0.22 µM in the data set with Leukemia Cancer HL60; 95.7 ± 1.13 µM in the data set on Liver Cancer HepG2 (Homo sapiens, HepG2, 48 h); 29.3 ± 1.02 µM in the data set on Breast Cancer MCF-7; 16.5 ± 1.98 µM in the data set on Lung Cancer A549.

`COc1cccc2c1C(=O)c1c(O)c3c(c(O)c1C2=O)C[C@@](O)(C(=O)CO)C[C@@H]3O[C@H]1C[C@H](N)[C@H](O)[C@H](C)O1` [doxorubicin]: the “IC50 against HepG2” value with HepG2 [2] is recorded as 2.11 ± 0.13 µg/mL (≈ 3.88 µM).

Regarding `CN[C@@H]1C[C@H]2O[C@@](C)([C@@H]1OC)n1c3ccccc3c3c4c(c5c6ccccc6n2c5c31)C(=O)NC4` [Staurosporine, reference compound], the half-maximal inhibitory concentration (IC50) in the data set on Breast Cancer MCF-7 worked out at 3.06 ± 0.42 µM; with Lung Cancer A549, 3.7 ± 0.09 µM.

Regarding `C/C(=N\NC(=O)COc1ccc2c(C)cc(=O)oc2c1)c1ccc(Cl)cc1` [III], the “IC50 against HepG2” value in the data set on HepG2 [2] was 2.84 ± 0.48 µg/mL (≈ 7.38 µM).

As to `Cc1cc(=O)oc2cc(OC(C)/C=C/C3=CC(=O)C(C)(C)O3)ccc12` (centres unmarked) [V], in data set [3], the GI50 (as a rule, the concentration giving 50% growth inhibition) was 0.5 ± 0.02 µM.

As for `O=C/C=C/c1ccccc1` [cinnamaldehyde], the IC50 in the data set with HepG2 [4] was 9.76 ± 0.67 µM.

Turning to `Cc1c(Br)c(=O)oc2cc(OC(=O)/C=C/c3ccccc3)ccc12` [Compound 8c, (2E)-3-bromo-4-methyl-2-oxo-2H-chromen-7-yl cinnamate], the melting point stood at 170 °C. In the data set on Leukemia Cancer HL60, the half-inhibitory concentration (IC50) was 48.1 ± 0.88 µM. The IC50 in the data set with Liver Cancer HepG2 (Homo sapiens, HepG2, 48 h) was 17.4 ± 0.19 µM. Further, the IC50 in the data set on Breast Cancer MCF-7 was found to be 67.3 ± 2.03 µM. Besides, in the data set with Lung Cancer A549, the IC50 was found to be 24.3 ± 0.37 µM. In addition, the half-maximal inhibitory concentration (IC50) in the data set with Normal Liver THLE2 came to 124 ± 2.12 µM.
